Assay results from ChEMBL document CHEMBL4507280 (2021).

What was measured:
[1] = molecular target: Epithelial discoidin domain-containing receptor 1 (Homo sapiens) (UniProt Q08345); details: Compound concentration 1000.0 nM
Histamine H4 receptor = Histamine H4 receptor (Homo sapiens, UniProt Q9H3N8); details: Compound concentration 10.0 uM
[2] = molecular target: Serine/threonine-protein kinase BRSK2 (Homo sapiens) (UniProt Q8IWQ3); details: Compound concentration 1000.0 nM
[3] = test system: Epidermal growth factor receptor (Homo sapiens), P00533 [UNDEFINED MUTATION]; details: Compound concentration 1000.0 nM
[4] = molecular target: Tyrosine-protein kinase Fer (Homo sapiens) (UniProt P16591); details: Compound concentration 1000.0 nM
[5] = molecular target: Calcium/calmodulin-dependent protein kinase type 1G (Homo sapiens) (UniProt Q96NX5); details: Compound concentration 1000.0 nM
[6] = molecular target: Testis-specific serine/threonine-protein kinase 3 (Homo sapiens) (UniProt Q96PN8); details: Compound concentration 1000.0 nM
Chain of Testis-specific serine/threonine-protein kinase 3 (Homo sapiens) (Q96PN8 whole entry): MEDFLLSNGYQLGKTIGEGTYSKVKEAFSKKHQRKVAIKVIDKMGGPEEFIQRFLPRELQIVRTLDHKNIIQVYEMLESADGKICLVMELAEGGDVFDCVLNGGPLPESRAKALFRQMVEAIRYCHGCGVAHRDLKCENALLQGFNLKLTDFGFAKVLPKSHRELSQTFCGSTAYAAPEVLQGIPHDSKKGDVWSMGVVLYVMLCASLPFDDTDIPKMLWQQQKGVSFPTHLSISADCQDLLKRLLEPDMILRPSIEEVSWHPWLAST

[7] = molecular target: Tyrosine-protein kinase BTK (Homo sapiens) (UniProt Q06187); details: Compound concentration 1000.0 nM
[8] = molecular target: Maternal embryonic leucine zipper kinase (Homo sapiens) (UniProt Q14680); details: Compound concentration 1000.0 nM
[9] = molecular target: Myosin light chain kinase 2, skeletal/cardiac muscle (Homo sapiens) (UniProt Q9H1R3); details: Compound concentration 1000.0 nM
[10] = molecular target: Receptor-interacting serine/threonine-protein kinase 1 (Homo sapiens) (UniProt Q13546); details: Compound concentration 1000.0 nM
[11] = molecular target: Tyrosine-protein kinase receptor TYRO3 (Homo sapiens) (UniProt Q06418); details: Compound concentration 1000.0 nM
[12] = molecular target: Dual specificity tyrosine-phosphorylation-regulated kinase 1A (Homo sapiens) (UniProt Q13627); details: Compound concentration 1000.0 nM
[13] = molecular target: Phosphatidylinositol 4,5-bisphosphate 3-kinase catalytic subunit alpha isoform (Homo sapiens) (UniProt P42336); details: Compound concentration 1000.0 nM
[14] = molecular target: Protein kinase C iota type (Homo sapiens) (UniProt P41743); details: Compound concentration 1000.0 nM
[15] = molecular target: Receptor-type tyrosine-protein kinase FLT3 (Homo sapiens) (UniProt P36888); details: Compound concentration 1000.0 nM
[16] = molecular target: Serine/threonine-protein kinase LATS1 (Homo sapiens) (UniProt O95835); details: Compound concentration 1000.0 nM
[17] = molecular target: Serine/threonine-protein kinase TAO1 (Homo sapiens) (UniProt Q7L7X3); details: Compound concentration 1000.0 nM
[18] = molecular target: 5-hydroxytryptamine receptor 1A (Homo sapiens) (UniProt P08908); details: Compound concentration 10.0 uM
[19] = molecular target: Serine/threonine-protein kinase Sgk1 (Homo sapiens) (UniProt O00141); details: Compound concentration 1000.0 nM
[20] = test system: Phosphatidylinositol 4,5-bisphosphate 3-kinase catalytic subunit alpha isoform (Homo sapiens), P42336 [H1047L]; details: Compound concentration 1000.0 nM
[21] = molecular target: Serine/threonine-protein kinase 17A (Homo sapiens) (UniProt Q9UEE5); details: Compound concentration 1000.0 nM
[22] = molecular target: Serine/threonine-protein kinase MAK (Homo sapiens) (UniProt P20794); details: Compound concentration 1000.0 nM
[23] = molecular target: Tyrosine-protein kinase SYK (Homo sapiens) (UniProt P43405); details: Compound concentration 1000.0 nM
[24] = molecular target: Interleukin-1 receptor-associated kinase 3 (Homo sapiens) (UniProt Q9Y616); details: Compound concentration 1000.0 nM
[25] = molecular target: Mitogen-activated protein kinase kinase kinase 4 (Homo sapiens) (UniProt Q9Y6R4); details: Compound concentration 1000.0 nM
[26] = test system: ALK tyrosine kinase receptor (Homo sapiens), Q9UM73 [L1196M]; details: Compound concentration 1000.0 nM
Chain of ALK tyrosine kinase receptor (Homo sapiens), Q9UM73 [L1196M] (Q9UM73 whole entry L1196M, looked up): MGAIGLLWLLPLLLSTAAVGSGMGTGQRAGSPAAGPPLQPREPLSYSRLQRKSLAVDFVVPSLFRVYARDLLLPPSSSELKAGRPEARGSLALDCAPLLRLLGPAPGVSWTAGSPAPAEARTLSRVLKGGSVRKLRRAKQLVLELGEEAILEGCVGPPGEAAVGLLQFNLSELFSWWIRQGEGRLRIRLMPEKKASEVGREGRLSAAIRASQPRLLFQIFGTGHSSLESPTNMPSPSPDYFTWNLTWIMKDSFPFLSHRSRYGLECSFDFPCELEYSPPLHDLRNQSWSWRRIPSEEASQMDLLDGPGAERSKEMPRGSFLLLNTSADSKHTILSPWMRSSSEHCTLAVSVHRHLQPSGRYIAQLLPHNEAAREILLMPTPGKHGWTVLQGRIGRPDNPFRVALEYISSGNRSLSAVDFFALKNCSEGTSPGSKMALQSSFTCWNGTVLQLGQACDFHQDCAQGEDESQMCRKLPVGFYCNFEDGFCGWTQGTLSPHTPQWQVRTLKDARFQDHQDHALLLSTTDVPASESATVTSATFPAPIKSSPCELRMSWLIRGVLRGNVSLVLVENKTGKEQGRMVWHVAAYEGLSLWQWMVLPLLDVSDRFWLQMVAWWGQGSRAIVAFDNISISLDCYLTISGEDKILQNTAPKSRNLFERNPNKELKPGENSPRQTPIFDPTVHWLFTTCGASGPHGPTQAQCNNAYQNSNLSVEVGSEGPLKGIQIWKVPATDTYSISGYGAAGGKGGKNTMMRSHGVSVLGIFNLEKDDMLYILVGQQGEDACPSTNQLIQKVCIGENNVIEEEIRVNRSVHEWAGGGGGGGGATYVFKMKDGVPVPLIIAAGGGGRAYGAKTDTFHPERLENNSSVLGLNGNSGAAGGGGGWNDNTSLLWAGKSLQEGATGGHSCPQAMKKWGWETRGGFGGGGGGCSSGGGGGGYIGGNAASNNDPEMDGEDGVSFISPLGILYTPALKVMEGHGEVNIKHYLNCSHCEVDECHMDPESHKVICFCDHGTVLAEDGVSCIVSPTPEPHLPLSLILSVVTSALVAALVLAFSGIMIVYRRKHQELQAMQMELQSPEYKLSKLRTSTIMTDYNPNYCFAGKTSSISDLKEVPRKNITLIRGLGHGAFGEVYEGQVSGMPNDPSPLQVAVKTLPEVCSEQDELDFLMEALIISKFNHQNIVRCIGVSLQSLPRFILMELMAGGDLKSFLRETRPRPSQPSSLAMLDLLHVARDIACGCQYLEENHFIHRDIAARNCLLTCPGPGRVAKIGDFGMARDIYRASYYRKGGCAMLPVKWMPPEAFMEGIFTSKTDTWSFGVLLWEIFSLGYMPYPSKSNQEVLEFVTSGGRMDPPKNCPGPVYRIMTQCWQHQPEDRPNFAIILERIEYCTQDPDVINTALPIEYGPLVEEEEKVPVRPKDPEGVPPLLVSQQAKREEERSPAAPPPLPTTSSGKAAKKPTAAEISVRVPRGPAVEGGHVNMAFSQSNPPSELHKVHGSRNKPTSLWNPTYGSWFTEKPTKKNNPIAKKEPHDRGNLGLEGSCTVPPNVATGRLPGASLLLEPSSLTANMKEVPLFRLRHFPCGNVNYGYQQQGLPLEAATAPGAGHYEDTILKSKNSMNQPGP

[27] = molecular target: Serine/threonine-protein kinase PknB (Mycobacterium tuberculosis) (UniProt P9WI81); details: Compound concentration 1000.0 nM
[28] = molecular target: Phosphorylase b kinase regulatory subunit alpha, liver isoform (Homo sapiens) (UniProt P46019); details: Compound concentration 1000.0 nM
[29] = molecular target: Receptor tyrosine-protein kinase erbB-2 (Homo sapiens) (UniProt P04626); details: Compound concentration 1000.0 nM
Chain of Receptor tyrosine-protein kinase erbB-2 (Homo sapiens) (P04626 whole entry): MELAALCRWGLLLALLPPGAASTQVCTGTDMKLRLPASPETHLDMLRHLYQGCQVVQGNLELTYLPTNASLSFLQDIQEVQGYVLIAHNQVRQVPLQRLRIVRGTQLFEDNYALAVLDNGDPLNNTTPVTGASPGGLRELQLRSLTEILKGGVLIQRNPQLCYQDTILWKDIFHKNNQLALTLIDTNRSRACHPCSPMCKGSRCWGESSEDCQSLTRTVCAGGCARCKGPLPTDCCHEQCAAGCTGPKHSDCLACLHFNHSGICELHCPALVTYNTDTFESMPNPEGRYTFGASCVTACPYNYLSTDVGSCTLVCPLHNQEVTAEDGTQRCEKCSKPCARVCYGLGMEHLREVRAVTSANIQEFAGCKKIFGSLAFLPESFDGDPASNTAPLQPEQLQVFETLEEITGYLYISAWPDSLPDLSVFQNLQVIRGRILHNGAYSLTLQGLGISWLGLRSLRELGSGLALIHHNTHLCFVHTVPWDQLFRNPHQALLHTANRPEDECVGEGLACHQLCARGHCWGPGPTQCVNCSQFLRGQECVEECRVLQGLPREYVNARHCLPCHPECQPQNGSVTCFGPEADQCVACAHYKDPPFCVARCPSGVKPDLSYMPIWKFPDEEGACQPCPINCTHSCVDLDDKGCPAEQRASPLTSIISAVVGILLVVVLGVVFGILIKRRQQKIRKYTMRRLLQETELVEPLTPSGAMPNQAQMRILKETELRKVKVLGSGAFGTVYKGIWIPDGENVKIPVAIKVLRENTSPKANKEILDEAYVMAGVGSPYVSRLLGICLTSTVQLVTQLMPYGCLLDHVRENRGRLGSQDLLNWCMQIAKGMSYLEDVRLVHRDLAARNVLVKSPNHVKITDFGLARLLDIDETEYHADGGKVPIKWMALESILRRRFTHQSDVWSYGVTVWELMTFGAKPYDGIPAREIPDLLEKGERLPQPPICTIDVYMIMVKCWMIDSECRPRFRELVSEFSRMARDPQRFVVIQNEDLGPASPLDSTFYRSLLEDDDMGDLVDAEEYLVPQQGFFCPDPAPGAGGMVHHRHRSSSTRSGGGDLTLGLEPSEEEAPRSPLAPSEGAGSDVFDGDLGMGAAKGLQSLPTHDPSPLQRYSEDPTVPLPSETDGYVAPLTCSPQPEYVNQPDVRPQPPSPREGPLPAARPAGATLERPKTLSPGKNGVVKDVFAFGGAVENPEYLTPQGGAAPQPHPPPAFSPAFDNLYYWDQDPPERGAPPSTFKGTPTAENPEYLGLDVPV

[30] = test system: Receptor-type tyrosine-protein kinase FLT3 (Homo sapiens), P36888 [UNDEFINED MUTATION]; details: Compound concentration 1000.0 nM
[31] = molecular target: BMP-2-inducible protein kinase (Homo sapiens) (UniProt Q9NSY1); details: Compound concentration 1000.0 nM
[32] = molecular target: Discoidin domain-containing receptor 2 (Homo sapiens) (UniProt Q16832); details: Compound concentration 1000.0 nM
[33] = test system: Epidermal growth factor receptor (Homo sapiens), P00533 [G719S]; details: Compound concentration 1000.0 nM
[34] = molecular target: Vascular endothelial growth factor receptor 1 (Homo sapiens) (UniProt P17948); details: Compound concentration 1000.0 nM
[35] = molecular target: Protein-tyrosine kinase 6 (Homo sapiens) (UniProt Q13882); details: Compound concentration 1000.0 nM
Chain of Protein-tyrosine kinase 6 (Homo sapiens) (Q13882 whole entry, looked up, canonical isoform): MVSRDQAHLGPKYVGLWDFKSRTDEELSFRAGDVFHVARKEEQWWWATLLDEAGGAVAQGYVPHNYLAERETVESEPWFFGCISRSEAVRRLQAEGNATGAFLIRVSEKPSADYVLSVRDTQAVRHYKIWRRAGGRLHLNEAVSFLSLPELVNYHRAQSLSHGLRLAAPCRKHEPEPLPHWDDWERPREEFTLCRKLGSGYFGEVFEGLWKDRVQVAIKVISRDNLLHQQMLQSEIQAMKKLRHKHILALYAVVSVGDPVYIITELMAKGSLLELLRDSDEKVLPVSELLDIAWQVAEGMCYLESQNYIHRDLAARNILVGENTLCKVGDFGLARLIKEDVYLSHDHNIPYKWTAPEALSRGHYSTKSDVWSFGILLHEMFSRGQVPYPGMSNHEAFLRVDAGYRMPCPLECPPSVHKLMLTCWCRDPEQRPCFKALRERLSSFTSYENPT

[36] = molecular target: Casein kinase I isoform gamma-3 (Homo sapiens) (UniProt Q9Y6M4); details: Compound concentration 1000.0 nM
[37] = molecular target: Mitogen-activated protein kinase kinase kinase kinase 2 (Homo sapiens) (UniProt Q12851); details: Compound concentration 1000.0 nM
[38] = molecular target: Activin receptor type-2A (Homo sapiens) (UniProt P27037); details: Compound concentration 1000.0 nM
[39] = molecular target: Insulin receptor (Homo sapiens) (UniProt P06213); details: Compound concentration 1000.0 nM
[40] = molecular target: cGMP-dependent protein kinase 1 (Homo sapiens) (UniProt Q13976); details: Compound concentration 1000.0 nM
Chain of cGMP-dependent protein kinase 1 (Homo sapiens) (Q13976 whole entry): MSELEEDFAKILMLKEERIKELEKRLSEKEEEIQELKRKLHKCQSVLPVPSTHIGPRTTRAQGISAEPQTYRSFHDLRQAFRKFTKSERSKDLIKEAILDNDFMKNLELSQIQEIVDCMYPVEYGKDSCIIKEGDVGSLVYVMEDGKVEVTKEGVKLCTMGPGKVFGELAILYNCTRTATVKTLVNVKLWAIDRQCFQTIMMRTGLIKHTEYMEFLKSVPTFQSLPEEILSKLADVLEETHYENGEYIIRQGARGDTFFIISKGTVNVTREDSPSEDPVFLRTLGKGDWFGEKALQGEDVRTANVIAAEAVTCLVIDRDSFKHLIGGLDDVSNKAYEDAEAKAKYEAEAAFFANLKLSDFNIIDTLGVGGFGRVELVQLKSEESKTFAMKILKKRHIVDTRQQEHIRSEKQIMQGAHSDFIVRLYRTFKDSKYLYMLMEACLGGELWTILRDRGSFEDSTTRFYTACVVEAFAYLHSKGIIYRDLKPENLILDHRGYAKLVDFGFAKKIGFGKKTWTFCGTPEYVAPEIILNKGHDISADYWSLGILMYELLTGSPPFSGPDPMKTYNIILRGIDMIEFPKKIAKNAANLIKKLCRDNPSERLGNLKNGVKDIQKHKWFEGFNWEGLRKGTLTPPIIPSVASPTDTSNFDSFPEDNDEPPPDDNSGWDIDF

[41] = test system: Tyrosine-protein kinase ABL1 (Homo sapiens), P00519 [T315I]; details: Compound concentration 1000.0 nM
[42] = molecular target: MAP kinase-interacting serine/threonine-protein kinase 1 (Homo sapiens) (UniProt Q9BUB5); details: Compound concentration 1000.0 nM
Chain of MAP kinase-interacting serine/threonine-protein kinase 1 (Homo sapiens) (Q9BUB5 whole entry, looked up): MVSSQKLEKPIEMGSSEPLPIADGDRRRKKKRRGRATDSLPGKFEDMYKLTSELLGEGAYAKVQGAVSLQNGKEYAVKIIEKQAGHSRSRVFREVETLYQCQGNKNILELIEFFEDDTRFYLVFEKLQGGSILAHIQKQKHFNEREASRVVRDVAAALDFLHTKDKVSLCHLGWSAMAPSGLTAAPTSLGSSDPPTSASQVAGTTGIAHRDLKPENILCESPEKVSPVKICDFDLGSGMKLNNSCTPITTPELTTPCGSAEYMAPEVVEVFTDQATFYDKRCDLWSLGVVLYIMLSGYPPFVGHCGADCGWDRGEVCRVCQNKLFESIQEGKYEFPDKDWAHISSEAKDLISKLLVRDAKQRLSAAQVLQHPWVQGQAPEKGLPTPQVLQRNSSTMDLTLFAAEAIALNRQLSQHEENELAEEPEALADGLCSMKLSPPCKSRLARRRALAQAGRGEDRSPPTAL

[43] = molecular target: TRAF2 and NCK-interacting protein kinase (Homo sapiens) (UniProt Q9UKE5); details: Compound concentration 1000.0 nM

SMILES: CCC(=O)N[C@H]1CC[C@@H](C(=O)N(C)c2ccc(-c3nc4ccccc4o3)cc2)C1 [BI 99179]
- residual activity [1]: 100%
- inhibition (Histamine H4 receptor): 39.3%
- residual activity [2]: 97%
- residual activity [3]: 79%
- residual activity [4]: 90%
- residual activity [5]: 100%
- residual activity [6]: 100%
- residual activity [7]: 77%
- residual activity [8]: 94%
- residual activity [9]: 85%
- residual activity [10]: 100%
- residual activity [11]: 92%
- residual activity [12]: 63%
- residual activity [13]: 94%
- residual activity [14]: 92%
- residual activity [15]: 85%
- residual activity [16]: 48%
- residual activity [17]: 100%
- inhibition [18]: 19.5%
- residual activity [19]: 100%
- residual activity [20]: 78%
- residual activity [21]: 91%
- residual activity [22]: 85%
- residual activity [23]: 100%
- residual activity [24]: 85%
- residual activity [25]: 100%
- residual activity [26]: 93%
- residual activity [27]: 86%
- residual activity [28]: 100%
- residual activity [29]: 100%
- residual activity [30]: 91%
- residual activity [31]: 91%
- residual activity [32]: 100%
- residual activity [33]: 100%
- residual activity [34]: 98%
- residual activity [35]: 100%
- residual activity [36]: 99%
- residual activity [37]: 96%
- residual activity [38]: 98%
- residual activity [39]: 91%
- residual activity [40]: 100%
- residual activity [41]: 86%
- residual activity [42]: 80%
- residual activity [43]: 100%

SMILES: CCC(=O)N[C@@H]1CC[C@H](C(=O)N(C)c2ccc(-c3nc4ccccc4o3)cc2)C1 [BI 99990]
- residual activity [1]: 100%
- inhibition (Histamine H4 receptor): 55.3%
- residual activity [2]: 76%
- residual activity [3]: 75%
- residual activity [4]: 99%
- residual activity [5]: 100%
- residual activity [6]: 97%
- residual activity [7]: 87%
- residual activity [8]: 100%
- residual activity [9]: 79%
- residual activity [10]: 100%
- residual activity [11]: 82%
- residual activity [12]: 98%
- residual activity [13]: 88%
- residual activity [14]: 84%
- residual activity [15]: 84%
- residual activity [16]: 58%
- residual activity [17]: 97%
- inhibition [18]: 8.28%
- residual activity [19]: 100%
- residual activity [20]: 97%
- residual activity [21]: 100%
- residual activity [22]: 100%
- residual activity [23]: 100%
- residual activity [24]: 100%
- residual activity [25]: 83%
- residual activity [26]: 100%
- residual activity [27]: 78%
- residual activity [28]: 100%
- residual activity [29]: 100%
- residual activity [30]: 100%
- residual activity [31]: 100%
- residual activity [32]: 92%
- residual activity [33]: 96%
- residual activity [34]: 100%
- residual activity [35]: 90%
- residual activity [36]: 100%
- residual activity [37]: 100%
- residual activity [38]: 100%
- residual activity [39]: 93%
- residual activity [40]: 100%
- residual activity [41]: 79%
- residual activity [42]: 95%
- residual activity [43]: 100%
